In this test the target is ACE2 (Homo sapiens, UniProt Q9BYF1). Kind of test: ACE2 quenched fluorescence substrate (QFS) inhibition assay. It is filed as biochemical. The procedure:
Angiotensin converting enzyme 2 QFS assays were performed for 1 h in 50 uM QFS, 1 M NaCl, 100 mM Tris-Cl, pH 6.5 at 37∘C on a BMG LabTechnologies (Offenburg, Germany), FLUOStar Optima in a 96 well-plate. Subsequent data analysis determined the inhibition of native AngII, its analogs and C-terminal peptides compared to the ACE2 QFS substrate [MCA-APK(DNP)-OH, [Vickers et al., 2002]]. […] Three controls were included in each ACE2 QFS assay; AngII (100 and 10 μM), IHPF (100 μM) and a known ACE2 inhibitor (1 nM; Millennium Pharmaceuticals, Cambridge, MA, USA). QFS assay results were accepted when ACE2 inhibition by AngII (10 μM) was 80 ± 5%, IHPF was 65 ± –5% and the ([Qian et al., 1999]) ‘Millennium Inhibitor’ was 70 ± –5%. Acceptable coefficients of variation (CV; standard deviation/mean × 100) for sample triplicates were <7%.
A library of 40 tetrapeptides based on the four C-terminal residues of Ang II (Ile-His-Pro-Phe/IHPF) was generated and screened for ACE2 binding at 100 μM in order to identify key residues of the C-terminus of Ang II involved in binding to the ACE2 active site. […] Several substitutions (Val, Tyr, Ala, Gly, Phe, Trp, Pro, His, Ile, and Leu) were made in order to further probe the highly hydrophobic and cyclic specificity of the C-terminus of Ang II. A β-napthalene amino acid (Nth) derivative was used as a highly hydrophobic non-natural cyclic residue substitute, and Arg and Lys were substituted for histidine at the second position from the N-terminus of the tetrapeptide to determine if positive charge or other structural or positional requirements were important.

Setting [1] is: peptide 100 μM, 50 uM QFS MCA-APK(DNP)-OH, 1 M NaCl, 100 mM Tris-Cl pH 6.5, 37 °C, 1 h, fluorescence, triplicate, read-out: ACE2 inhibition of single substitution analogs of the C-terminal of AngII (Table 1).
The mark [2] stands for this setting: read-out: ACE2 inhibition of terminally modified IHPF analogs, 100 μM (Table 3), peptide 100 μM, 50 uM QFS, 1 M NaCl, 100 mM Tris-Cl pH 6.5, 37 °C, 1 h.
Setting [3] is: read-out: ACE2 inhibition of terminally modified IHPF analogs, 10 μM (Table 3, in brackets), peptide 10 μM, 50 uM QFS, 1 M NaCl, 100 mM Tris-Cl pH 6.5, 37 °C, 1 h.
[4] abbreviates: peptide 100 μM, 50 uM QFS, 1 M NaCl, 100 mM Tris-Cl pH 6.5, 37 °C, 1 h, triplicate, read-out: Inhibition (%) of ACE2, single and multiple residue substitution analogs (Table 2).
Where [5] appears, read: pH 6.5, read-out: ACE2 inhibition of terminally modified IHPF analogs, 100 μM (Table 3).

Read-outs that look alike come from different tables or passages of the source. Peptide text beside a SMILES is read from it.

ACE2, sequence (Q9BYF1 18-805, species assumed): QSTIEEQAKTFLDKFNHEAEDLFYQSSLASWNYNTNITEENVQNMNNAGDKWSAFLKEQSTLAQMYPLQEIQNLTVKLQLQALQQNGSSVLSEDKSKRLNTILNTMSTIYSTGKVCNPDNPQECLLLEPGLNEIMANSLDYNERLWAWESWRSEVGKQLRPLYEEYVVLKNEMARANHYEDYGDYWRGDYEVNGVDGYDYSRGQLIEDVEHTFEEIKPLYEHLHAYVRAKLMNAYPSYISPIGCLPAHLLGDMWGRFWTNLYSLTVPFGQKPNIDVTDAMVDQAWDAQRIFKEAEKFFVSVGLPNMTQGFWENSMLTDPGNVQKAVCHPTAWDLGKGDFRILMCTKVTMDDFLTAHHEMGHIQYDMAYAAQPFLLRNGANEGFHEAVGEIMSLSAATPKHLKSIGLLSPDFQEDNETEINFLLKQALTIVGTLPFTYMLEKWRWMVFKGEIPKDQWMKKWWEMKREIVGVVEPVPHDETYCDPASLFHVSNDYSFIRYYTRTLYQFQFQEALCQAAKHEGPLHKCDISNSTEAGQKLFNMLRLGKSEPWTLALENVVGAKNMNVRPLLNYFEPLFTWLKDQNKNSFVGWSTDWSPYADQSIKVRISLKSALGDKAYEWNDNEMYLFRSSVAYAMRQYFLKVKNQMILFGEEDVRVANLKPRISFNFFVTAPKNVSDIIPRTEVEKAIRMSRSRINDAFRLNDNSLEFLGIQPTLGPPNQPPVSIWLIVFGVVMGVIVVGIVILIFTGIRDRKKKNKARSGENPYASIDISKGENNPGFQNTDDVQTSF

As a reminder, the inhibition is the share of the control response that was lost under treatment. As to `CC[C@H](C)[C@H](N)C(=O)NCC(=O)N1CCC[C@H]1C(=O)N[C@@H](Cc1ccccc1)C(=O)O` [IGPF] (H-IGPF-OH), the inhibition at 100 µM under setting [1] amounted to 39%.
For the molecule `CC(=O)N1CCC[C@H]1C(=O)N[C@@H](Cc1c[nH]cn1)C(=O)N1CCC[C@H]1C(=O)N[C@@H](Cc1ccccc1)C(N)=O` [N-acetylated/C-amidated PHPF] (Ac-PHPF-NH2), the inhibition at 100 µM under setting [2] was found to be 8%.
As for `CC(=O)N[C@H](C(=O)N[C@@H](Cc1c[nH]cn1)C(=O)N[C@H](C(=O)N[C@@H](Cc1ccccc1)C(=O)O)C(C)C)C(C)C` [N-acetylated VHVF] (Ac-VHVF-OH), the inhibition at 10 µM under setting [3] was found to be 31%. The inhibition at 100 µM under setting [2] is 76%.
In the same order, the values of `CC(=O)N1CCC[C@H]1C(=O)N[C@@H](Cc1ccc(O)cc1)C(=O)N[C@H](C(=O)N[C@@H](Cc1ccccc1)C(=O)O)C(C)C` [N-acetylated PYVF] (Ac-PYVF-OH) are 18% and 78%.
With `CC[C@H](C)[C@H](N)C(=O)N[C@@H](Cc1c[nH]cn1)C(=O)N[C@H](C(=O)N[C@@H](Cc1ccccc1)C(=O)O)C(C)C` [IHVF] (H-IHVF-OH), the inhibition at 100 µM under setting [1] amounted to 77% and the inhibition at 100 µM under setting [4] worked out at 77%.
As for `CC[C@H](C)[C@H](N)C(=O)N[C@@H](Cc1ccccc1)C(=O)N1CCC[C@H]1C(=O)N[C@@H](Cc1ccccc1)C(=O)O` [IFPF] (H-IFPF-OH), under setting [1], the inhibition at 100 µM is 0%.
For the molecule `CC(C)[C@H](N)C(=O)N[C@@H](Cc1c[nH]cn1)C(=O)N1CCC[C@H]1C(=O)N[C@@H](Cc1ccccc1)C(=O)O` [VHPF] (H-VHPF-OH), the inhibition at 100 µM worked out at 78% under setting [1] and 78% under setting [4].
Regarding `CC(C)[C@H](N)C(=O)N[C@@H](Cc1ccc(O)cc1)C(=O)N1CCC[C@H]1C(=O)N[C@@H](Cc1ccccc1)C(N)=O` [C-amidated VYPF] (H-VYPF-NH2), the inhibition at 100 µM under setting [5] came to 25%.
For the molecule `CC[C@H](C)[C@H](N)C(=O)N[C@@H](CCCCN)C(=O)N1CCC[C@H]1C(=O)N[C@@H](Cc1ccccc1)C(=O)O` [IKPF] (H-IKPF-OH), the inhibition at 100 µM under setting [1] was 28%.
With `CC(=O)N[C@H](C(=O)N[C@@H](Cc1ccc(O)cc1)C(=O)N1CCC[C@H]1C(=O)N[C@@H](Cc1ccccc1)C(=O)O)C(C)C` [N-acetylated VYPF] (Ac-VYPF-OH), the inhibition at 10 µM under setting [3] came to 79%. Also, the inhibition at 100 µM under setting [2] was found to be 98%.
For the molecule `NCC(=O)N[C@@H](Cc1c[nH]cn1)C(=O)N1CCC[C@H]1C(=O)N[C@@H](Cc1ccccc1)C(=O)O` [GHPF] (H-GHPF-OH), the inhibition at 100 µM under setting [1] is 0%.
Still for that read-out and setting: the figure for `N[C@@H](Cc1ccccc1)C(=O)N[C@@H](Cc1c[nH]cn1)C(=O)N1CCC[C@H]1C(=O)N[C@@H](Cc1ccccc1)C(=O)O` [FHPF] (H-FHPF-OH) is 48%.
On to `CC(C)[C@H](N)C(=O)N[C@@H](Cc1c[nH]cn1)C(=O)N[C@H](C(=O)N[C@@H](Cc1ccccc1)C(N)=O)C(C)C` [C-amidated VHVF] (H-VHVF-NH2), for which the inhibition at 10 µM under setting [3] was 40%. In addition, the inhibition at 100 µM under setting [2] came to 86%.
For the molecule `CC[C@H](C)[C@H](N)C(=O)N[C@@H](Cc1c[nH]cn1)C(=O)N1CCC[C@H]1C(=O)N[C@H](C(=O)O)C(C)C` [IHPV] (H-IHPV-OH), the inhibition at 100 µM under setting [1] was 18%.
As to `CC[C@H](C)[C@H](N)C(=O)N[C@@H](Cc1c[nH]c2ccccc12)C(=O)N1CCC[C@H]1C(=O)N[C@@H](Cc1ccccc1)C(=O)O` [IWPF] (H-IWPF-OH), the inhibition at 100 µM under setting [1] came out at 40%.
On to `CC(C)[C@H](N)C(=O)N[C@@H](Cc1ccc(O)cc1)C(=O)N[C@H](C(=O)N[C@@H](Cc1ccccc1)C(=O)O)C(C)C` [VYVF] (H-VYVF-OH), for which the inhibition at 100 µM under setting [4] was determined as 78%.
`N[C@@H](Cc1ccc(O)cc1)C(=O)N[C@@H](Cc1c[nH]cn1)C(=O)N1CCC[C@H]1C(=O)N[C@@H](Cc1ccccc1)C(=O)O` [YHPF] (H-YHPF-OH): the inhibition at 100 µM under setting [1] stood at 34%.
Same read-out and setting: as for `CC[C@H](C)[C@H](N)C(=O)N[C@@H](Cc1c[nH]cn1)C(=O)N[C@@H](C)C(=O)N[C@@H](Cc1ccccc1)C(=O)O` [IHAF] (H-IHAF-OH), the figure is 19%; as for `CC[C@H](C)[C@H](N)C(=O)N[C@@H](Cc1c[nH]cn1)C(=O)N1CCC[C@H]1C(=O)N[C@@H](C)C(=O)O` [IHPA] (H-IHPA-OH), 44%.
Consider `CC(=O)N1CCC[C@H]1C(=O)N[C@@H](Cc1c[nH]cn1)C(=O)N[C@H](C(=O)N[C@@H](Cc1ccccc1)C(N)=O)C(C)C` [N-acetylated/C-amidated PHVF] (Ac-PHVF-NH2), for which the inhibition at 100 µM under setting [2] stood at 12%.
Regarding `CC[C@H](C)[C@H](N)C(=O)N[C@@H](Cc1c[nH]cn1)C(=O)N1CCC[C@H]1C(=O)N[C@@H](Cc1ccccc1)C(=O)O` [IHPF, Ile-His-Pro-Phe, reference compound] (H-IHPF-OH), the inhibition at 100 µM under setting [1] turned out to be 62% and the inhibition at 100 µM under setting [2] was 66%. Moreover, the inhibition at 10 µM under setting [3] is 22%.
Take `CC[C@H](C)[C@H](N)C(=O)N[C@@H](CCCNC(=N)N)C(=O)N1CCC[C@H]1C(=O)N[C@@H](Cc1ccccc1)C(=O)O` [IRPF] (H-IRPF-OH): the inhibition at 100 µM under setting [1] was 33%.
The same measure, in the same setting: the figure for `CC[C@H](C)[C@H](N)C(=O)N[C@@H](Cc1c[nH]cn1)C(=O)N1CCC[C@H]1C(=O)N[C@@H](CC(C)C)C(=O)O` [IHPL] (H-IHPL-OH) is 48%; for `CC[C@H](C)[C@H](N)C(=O)N[C@@H](Cc1c[nH]cn1)C(=O)N1CCC[C@H]1C(=O)N[C@@H](Cc1c[nH]cn1)C(=O)O` [IHPH] (H-IHPH-OH) it is 54%.
The same measure, in the same setting: the figure for `CC[C@H](C)[C@H](N)C(=O)N[C@@H](Cc1c[nH]cn1)C(=O)N[C@@H](Cc1ccc(O)cc1)C(=O)N[C@@H](Cc1ccccc1)C(=O)O` [IHYF] (H-IHYF-OH) is 1%; for `CC[C@H](C)[C@H](N)C(=O)N[C@@H](Cc1c[nH]cn1)C(=O)N1CCC[C@H]1C(=O)N[C@@H](Cc1c[nH]c2ccccc12)C(=O)O` [IHPW] (H-IHPW-OH) it is 57%.
Regarding `CC[C@H](C)[C@H](N)C(=O)N[C@@H](Cc1c[nH]cn1)C(=O)N[C@@H](CC(C)C)C(=O)N[C@@H](Cc1ccccc1)C(=O)O` [IHLF] (H-IHLF-OH), under setting [1], the inhibition at 100 µM amounted to 0%.
In the case of `CC(=O)N1CCC[C@H]1C(=O)N[C@@H](Cc1c[nH]cn1)C(=O)N[C@H](C(=O)N[C@@H](Cc1ccccc1)C(=O)O)C(C)C` [N-acetylated PHVF] (Ac-PHVF-OH), under setting [2], the inhibition at 100 µM came out at 8%.
Turning to `NC(=O)[C@H](Cc1ccccc1)NC(=O)[C@@H]1CCCN1C(=O)[C@H](Cc1c[nH]cn1)NC(=O)[C@@H]1CCCN1` [C-amidated PHPF] (H-PHPF-NH2), the inhibition at 100 µM under setting [2] is 1%.
Consider `O=C(O)[C@H](Cc1ccccc1)NC(=O)[C@@H]1CCCN1C(=O)[C@H](Cc1ccc(O)cc1)NC(=O)[C@@H]1CCCN1` [PYPF] (H-PYPF-OH), for which the inhibition at 100 µM is 93% (1 h, pH 6.5, read-out: Inhibition (%) of ACE2, single and multiple residue substitution analogs (Table 2)); 93% under setting [5]. Moreover, the inhibition at 10 µM (pH 6.5, read-out: ACE2 inhibition of terminally modified IHPF analogs, 10 μM (Table 3, in brackets)) was 50%.
`CC[C@H](C)[C@H](N)C(=O)N[C@@H](Cc1ccc(O)cc1)C(=O)N1CCC[C@H]1C(=O)N[C@@H](Cc1ccccc1)C(=O)O` [IYPF] (H-IYPF-OH): the inhibition at 100 µM under setting [1] is 87% and the inhibition at 100 µM under setting [2] came out at 84%. Also, the inhibition at 10 µM under setting [3] was determined as 35%.
Consider `CC(=O)N1CCC[C@H]1C(=O)N[C@@H](Cc1c[nH]cn1)C(=O)N1CCC[C@H]1C(=O)N[C@@H](Cc1ccccc1)C(=O)O` [N-acetylated PHPF] (Ac-PHPF-OH), for which the inhibition at 100 µM under setting [2] came out at 57%.
For `CC[C@H](C)[C@H](N)C(=O)N[C@@H](Cc1ccc(O)cc1)C(=O)N1CCC[C@H]1C(=O)N[C@@H](Cc1ccccc1)C(N)=O` [C-amidated IYPF] (H-IYPF-NH2), the inhibition at 100 µM under setting [5] worked out at 8%.
Take `CC[C@H](C)[C@H](N)C(=O)N[C@@H](Cc1c[nH]cn1)C(=O)N[C@@H](Cc1ccccc1)C(=O)N[C@@H](Cc1ccccc1)C(=O)O` [IHFF] (H-IHFF-OH): the inhibition at 100 µM under setting [1] amounted to 0%.
For `CC(C)[C@H](N)C(=O)N[C@@H](Cc1c[nH]cn1)C(=O)N[C@H](C(=O)N[C@@H](Cc1ccccc1)C(=O)O)C(C)C` [VHVF] (H-VHVF-OH), the inhibition at 100 µM reads like this: under setting [4], 85%; under setting [2], 85%. Further, the inhibition at 10 µM under setting [3] is 37%.

The record behind these values is publication PMC4311625, “Structural determinants for binding to angiotensin converting enzyme 2 (ACE2) and angiotensin receptors 1 and 2” (Frontiers in Pharmacology, 2015).
